The numbers were not newly measured in patent US9463243B2, “Amorphous medicinal fine particles produced by pulsed laser ablation in liquid and the production method thereof” (IMRA AMERICA, INC., priority 2012, dated 2016), which cites them from elsewhere.

With `COc1cc(/C=C/C(=O)CC(=O)/C=C/c2ccc(O)c(OC)c2)ccc1O` [Curcumin, curcumin], the water solubility entry is reported as “water-insoluble”.
